“Also recorded” adds a separate entry of the source.
Experiments:
[1] = system: SIRT1; test: SIRT1 protein expression, immunoblot and densitometry in 3T3 L1 preadipocytes; format: cell-based; conditions: 3T3 L1 preadipocytes, 60 μM, 24 hours; for SIRT1 protein expression, Derivative vs. GR24: derivative compared to GR24 (=100%)
Procedure: (§1) 3T3L1 cells were purchased from American Type Culture Collection (Manassas, Va., USA) and cultured in DMEM media containing 4.5 g/l glucose supplemented with 10% fetal bovine serum (Hyclone), 2 mM L-glutamine (Gibco), 100 U/ml penicillin, and 100 μg/ml streptomycin (Gibco). The cells were cultured at 37° C. in a humidified atmosphere with 10% CO2.
(§2) The 3T3L1 cells were plated at 6×10^4 cells/well in 12 well plates and incubated at 37° C. in a humidified atmosphere with 10% CO2. The media was removed after 24 hours and the cells were treated with 60 μM GR24 individually and in combination with 60 resveratrol and 60 μM pinosylvin, and incubated for 24 hours at 37° C. in a humidified atmosphere with 10% CO2. The media was removed, cells were washed with PBS, and cell lysates were collected on ice. Proteins were extracted using RIPA buffer along with protease and phosphatase inhibitors. Lysates were centrifuged for 30 min at high speed; supernatant was collected and stored at […] until further analysis. The vehicle controls were 3T3 L1 cells without any treatment with drugs or other compounds. The drugs or compounds that were used in all the experiments were dissolved or diluted in dimethylsulfoxide (DMSO) as diluent. In all experiments, the controls were treated with the same volume of DMSO as was used to dissolve drugs or compounds in compound-treated cells to show and ensure that the actual change in protein expression in different treatments was due solely to the compounds or combination of compounds and not to the DMSO.
(§3) Protein concentrations were measured using a BCA (bicinchoninic acid) protein assay kit (Cat.#23225; Pierce, Rockford, Ill.). Twenty (20) μg/lane of total cellular protein samples containing NuPAGE LDS sample buffer (Invitrogen) and reducing agent were loaded into 4-12% NuPAGE Bis-Tris gels (Invitrogen), subjected to gel electrophoresis, and transferred to polyvinylidene fluoride membranes (Amersham). For SIRT1 proteins, membranes were blocked in 0.05% TBS-Tween with 3% milk for 1 hour, incubated overnight at +4° C. with SIRT1 primary antibodies (Cat.#07-131, Millipore). For phospho-AMPKα and AMPKα proteins, blocking was done for 1 hour in 0.1% TBS-Tween with 5% milk. The membranes were incubated overnight at +4° C. with phospho-AMPKα (Cat. #2535, Cell Signaling) and AMPKα (Cat.#2532, Cell Signaling) primary antibodies. Horseradish peroxidase-conjugated anti-rabbit antibodies (Cat. #NA934V GE Health Care, Amersham, U.K) were used as secondary antibodies. For α-tubulin (loading control), membranes were blocked in 0.05% PBS-Tween with 3% milk for 1 hour, incubated with α-tubulin (Cat.# B-5-1-2, Sigma) primary antibodies for 1 hour at room temperature and horseradish peroxidase-conjugated anti-mouse (Cat. # NA 931V GE Health Care, Amersham, U.K.) IgG antibodies were used as secondary antibodies.
(§4) The membranes were developed using chemiluminescence (ECL plus, GE Health Care), and images were captured in an Image Quant RT-ECL machine (version 1.0.1; GE Health Care). Densitometry and quantification of the bands were done by applying Quantity One software (Bio-Rad). The expression levels of the proteins were normalized to α-tubulin protein levels.
3T3L1 cells were purchased from American Type Culture Collection (Manassas, Va., USA) and cultured in DMEM media containing 4.5 g/l glucose supplemented with 10% fetal bovine serum (Hyclone), 2 mM L-glutamine (Gibco) and 100 U/ml penicillin, 100 μg/ml streptomycin (Gibco). The cells were cultured at 37° C. in a humidified atmosphere with 10% CO2. 3T3L1 preadipocytes were plated at 1×10^5 cells/well in 6 well plates and incubated at 37° C. in a humidified atmosphere with 10% CO2. […] In all experiments, the controls were treated with the same volume of DMSO as was used to dissolve compounds in compound-treated cells to show and ensure that the actual change in protein expression in different treatments was only due to the compounds DMSO. […]

[2] = system: PGC-1α; test: PGC-1α protein expression, immunoblot and densitometry in 3T3 L1 preadipocytes; format: cell-based; conditions: 60 μM, 24 hours; for PGC-1α protein expression, Derivative vs. GR24: derivative compared to GR24 (=100%)
Procedure: as §1, with “CO2. […]” for “CO2.”
as §3, §4
PGC-1α as an indicator of SIRT1 activity: PGC-1α has been extensively described as a master regulator of mitochondrial biogenesis. […] When SIRT1 protein expression is induced, it interacts with and deacetylates PGC-1α in an NAD-dependent manner. Thus SIRT1 acts as a modulator of PGC-1a (Rodgers J T et al, Nature 2005). The effects of resveratrol, a nonselective SIRT1 activator, were associated with an induction of genes for oxidative phosphorylation and mitochondrial biogenesis, and were largely explained by a resveratrol-mediated decrease in PGC-1α acetylation and an increase in PGC-1α activity (Lagouge M, Cell 2006). Therefore, PGC-1α protein expression serves as an indicator of SIRT1 activity.
3T3L1 cells were purchased from American Type Culture Collection (Manassas, Va., USA) and cultured in DMEM media containing 4.5 g/l glucose supplemented with 10% fetal bovine serum (Hyclone), 2 mM L-glutamine (Gibco) and 100 U/ml penicillin, 100 μg/ml streptomycin (Gibco). The cells were cultured at 37° C. in a humidified atmosphere with 10% CO2. 3T3L1 preadipocytes were plated at 1×10^5 cells/well in 6 well plates and incubated at 37° C. in a humidified atmosphere with 10% CO2. The media was removed after 24 hours and the cells were treated with 60 μM GR24 or with 60 μM 1A, 1B, 5A, 5B, 6A, or 7A and incubated for 24 hours at 37° C. in a humidified atmosphere with 10% CO2. In all experiments, the controls were treated with the same volume of DMSO as was used to dissolve compounds in compound-treated cells to show and ensure that the actual change in protein expression in different treatments was only due to the compounds […]. The media was removed, cells were washed with PBS and cell lysates were collected on ice. Proteins were extracted using RIPA buffer along with protease and phosphatase inhibitors. Lysates were centrifuged for 30 min at high speed; supernatant was collected and stored at −70° C. until further analysis.

[3] = system: phospho-AMPK; test: phospho-AMPK expression / AMPK activation, immunoblot in 3T3 L1 preadipocytes; format: cell-based; conditions: 3T3 L1 preadipocytes, 60 μM, 24 hours
Procedure: as §1
as §2, with “The media was removed after 24 hours and the cells were treated with 60 μM GR24 individually and in combination with 60 resveratrol and 60 μM pinosylvin, and incubated for 24 hours at 37° C. in a humidified atmosphere with 10% CO2.” left out
as §3, §4

[4] = system: phospho-ACC; test: phospho-ACC expression, immunoblot in 3T3 L1 preadipocytes; format: cell-based; conditions: 3T3 L1 preadipocytes, 60 μM, 24 hours
[5] = system: mitochondria of 3T3L1 preadipocytes; test: Mitochondrial staining with MitoTracker green, confocal microscopy; format: cell-based; conditions: 60 μM, 24 hours
Procedure: The 3T3L1 preadipocytes were plated onto Ibidi u-slide 8 well plates at 1.6×10^4 cells/well and incubated at 37° C. in a humidified atmosphere with 10% CO2. The media was removed after 24 hours, the cells were treated with 60 μM GR24 and incubated for 24 hours at 37° C. in a humidified atmosphere with 10% CO2. After 24 hours of treatment, staining of mitochondria was done using 200 nM MitoTracker Mitochondrion-Selective Probes (Green FM probes Cat.#M7514, Invitrogen) according to the manufacturer's instructions. The cells were observed using a confocal microscope and images were taken at 40× oil immersion.
Preadipocytes were treated with DMSO (Vehicle control) (FIG. 5A), 60 μM resveratrol (FIG. 5B) or 60 μM strigolactone analog GR24 (FIG. 5C) for 24 hours. Next, preadipocytes were stained with MitoTracker green and observed under a confocal microscope at 40× oil immersion. […] The white oval shaped structures are nucleus and the white thread-like structures around the nucleus in the cytoplasm are mitochondria. When compared to the control, there was an increase in mitochondrial biogenesis represented by elongated mitochondria, and an increase in mitochondrial activation represented by the intensity of fluorescence, in cells treated with resveratrol and GR24. […] Thus, GR24 enhances both biogenesis and activity of mitochondria, which is necessary to generate ATP.

[6] = target: T1, SIRT1 (Mus musculus, UniProt Q923E4); conditions: mice; cited from earlier work
T1 construct: host or cells: mice (in vivo)
T1 sequence (Q923E4 1-737): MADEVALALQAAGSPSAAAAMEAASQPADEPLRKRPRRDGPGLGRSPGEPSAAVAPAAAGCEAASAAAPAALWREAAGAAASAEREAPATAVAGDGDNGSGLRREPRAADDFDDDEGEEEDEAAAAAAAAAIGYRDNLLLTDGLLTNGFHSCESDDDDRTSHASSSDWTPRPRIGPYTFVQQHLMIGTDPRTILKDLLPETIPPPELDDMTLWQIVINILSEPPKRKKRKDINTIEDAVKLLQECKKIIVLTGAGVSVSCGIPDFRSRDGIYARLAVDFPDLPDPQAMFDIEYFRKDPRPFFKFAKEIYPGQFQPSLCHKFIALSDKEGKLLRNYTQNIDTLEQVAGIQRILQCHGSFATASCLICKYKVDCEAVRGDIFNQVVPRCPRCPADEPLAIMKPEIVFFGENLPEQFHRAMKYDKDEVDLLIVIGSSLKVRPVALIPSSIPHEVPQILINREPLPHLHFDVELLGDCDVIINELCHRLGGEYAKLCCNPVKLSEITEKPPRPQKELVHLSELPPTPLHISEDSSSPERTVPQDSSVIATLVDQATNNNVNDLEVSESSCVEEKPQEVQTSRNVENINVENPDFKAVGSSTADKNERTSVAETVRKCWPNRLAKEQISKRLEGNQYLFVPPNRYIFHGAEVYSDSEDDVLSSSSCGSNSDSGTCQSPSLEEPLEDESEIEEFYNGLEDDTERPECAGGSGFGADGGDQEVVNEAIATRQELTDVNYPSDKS

| Structure (SMILES) | SIRT1 protein expression compared to control (100%) [1] | SIRT1 protein expression, Derivative vs. GR24 [1] | PGC-1α protein expression compared to control (100%) [2] | PGC-1α protein expression, Derivative vs. GR24 [2] | phospho-AMPK expression compared to control [3] | phospho-ACC expression (phosphorylation of ACC) compared to control [4] | mitochondrial activation (intensity of fluorescence) compared to control [5] | mitochondrial biogenesis (elongated mitochondria) compared to control [5] | SIRT1 activity [6] | genes responsible for mitochondrial biogenesis [6] |
| --- | --- | --- | --- | --- | --- | --- | --- | --- | --- | --- |
| CCC1=C[C@H](O/C=C2/C(=O)O[C@H]3c4ccccc4C[C@@H]23)OC1=O [Compound 1B] | 1B 215% | +31% | 1B 215% | +31% | – | – | – | – | – | – |
| Oc1ccc(/C=C/c2cc(O)cc(O)c2)cc1 [resveratrol, 3,5,4″-trans-trihydroxystilbene] | – | – | – | – | significant increase; also recorded: increased | no change | increase | increase | increases | stimulates |
| CC1=C[C@H](O/C=C2/C(=O)O[C@H]3c4c(C)cccc4C[C@@H]23)OC1=O [Compound 5B] | 5B 327% | +48% | 5B 327% | +48% | – | – | – | – | – | – |
| CCC1=C[C@H](O/C=C2/C(=O)O[C@@H]3c4ccccc4C[C@H]23)OC1=O [Compound 1A] | 1A 186% | +11% | 1A 186% | +11% | – | – | – | – | – | – |
| COc1cccc2c1[C@H]1OC(=O)/C(=C/O[C@H]3C=C(C)C(=O)O3)[C@H]1C2 [Compound 6A] | 6A 206% | +38% | 6A 206% | +38% | – | – | – | – | – | – |
| COc1ccc(C)c2c1C[C@@H]1/C(=C\O[C@H]3C=C(C)C(=O)O3)C(=O)O[C@H]21 [Compound 7A] | 7A 218% | +30% | 7A 218% | +30% | – | – | – | – | – | – |

Reference: patent US20140142170A1, “COMPOSITION AND METHOD FOR INFLUENCING ENERGY METABOLISM AND TREATING METABOLIC AND OTHER DISORDERS” (SIRTUIN VALLEY OY, priority 2010, published 2014)
